From PubChem BioAssay AID256 (DTP/NCI, 2004)
“And” between values parts separate entries of the source, which are not always exact repeats. Identical values can stand only once. Inconclusive results and toxic doses are left out. The calls were made as follows: active = survival T/C of 150% or more; inactive = T/C below 125% in these data.

System: CD2F1 mice, L1210 leukemia ip, survival T/C
Assay: NCI In Vivo Anticancer Drug Screen. Data for tumor model L1210 Leukemia (intraperitoneal) in CD2F1 (CDF1) mice
Conditions: endpoint: mean survival time, higher = longer survival
Procedure, shortened: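 Read-out first: treated-group measurement over vehicle-control measurement, expressed as a ratio. Animals bore a transplanted tumor line and were dosed with compound or vehicle.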

[1] = dose: 100.0 mg/kg/injection, schedule: Q01DX009 (ip), vehicle: saline with Tween-80
[2] = dose: 200.0 mg/kg/injection, schedule: Q01DX009 (ip), vehicle: saline with Tween-80
[3] = dose: 400.0 mg/kg/injection, schedule: Q01DX009 (ip), vehicle: saline with Tween-80
[4] = dose: 100.0 mg/kg/injection, schedule: Q01DX009 (ip), vehicle: saline
[5] = dose: 200.0 mg/kg/injection, schedule: Q01DX009 (ip), vehicle: saline
[6] = dose: 400.0 mg/kg/injection, schedule: Q01DX009 (ip), vehicle: saline
[7] = dose: 100.0 mg/kg/injection, schedule: Q04DX003 (ip), vehicle: saline
[8] = dose: 200.0 mg/kg/injection, schedule: Q04DX003 (ip), vehicle: saline
[9] = dose: 400.0 mg/kg/injection, schedule: Q04DX003 (ip), vehicle: saline
[10] = dose: 100.0 mg/kg/injection, schedule: Q04DX003 (ip), vehicle: saline with Tween-80
[11] = dose: 200.0 mg/kg/injection, schedule: Q04DX003 (ip), vehicle: saline with Tween-80
[12] = dose: 400.0 mg/kg/injection, schedule: Q04DX003 (ip), vehicle: saline with Tween-80
[13] = dose: 75.0 mg/kg/injection, schedule: Q01DX001 (ip), vehicle: other
[14] = dose: 150.0 mg/kg/injection, schedule: Q01DX001 (ip), vehicle: other
[15] = dose: 300.0 mg/kg/injection, schedule: Q01DX001 (ip), vehicle: other
[16] = dose: 100.0 mg/kg/injection, schedule: Q01DX001 (ip), vehicle: saline
[17] = dose: 200.0 mg/kg/injection, schedule: Q01DX001 (ip), vehicle: saline
[18] = dose: 400.0 mg/kg/injection, schedule: Q01DX001 (ip), vehicle: saline
[19] = dose: 25.0 mg/kg/injection, schedule: Q01DX009 (ip), vehicle: saline with Tween-80
[20] = dose: 50.0 mg/kg/injection, schedule: Q01DX009 (ip), vehicle: saline with Tween-80

Measured: T/C

COC(=O)CC(=O)OCC1C=CCC=C1
inactive: [1] 98 % of control | [2] 98 % of control | [3] 100 % of control

C[CH2][Pb]([CH2]C)([CH2]C)[O]C(=O)c1ccc2ccccc2n1
inactive: dose: 0.4 mg/kg/injection, schedule: Q01DX009 (ip), vehicle: saline 103 % of control | dose: 0.8 mg/kg/injection, schedule: Q01DX009 (ip), vehicle: saline 103 % of control | dose: 1.6 mg/kg/injection, schedule: Q01DX009 (ip), vehicle: saline 101 % of control

Nc1cc(=O)c2[nH]cnc2[nH]1
inactive: dose: 100.0 mg/kg/injection, schedule: Q01DX001 (ip), vehicle: carboxymethylcellulose (CMC) 95 % of control | dose: 200.0 mg/kg/injection, schedule: Q01DX001 (ip), vehicle: carboxymethylcellulose (CMC) 104 % of control | dose: 400.0 mg/kg/injection, schedule: Q01DX001 (ip), vehicle: carboxymethylcellulose (CMC) 101 % of control

CC1=CC(=O)OC(C)(C)C1
inactive: [4] 97 % of control | [5] 96 % of control | [6] 114 % of control

Nc1cc(S(=O)(=O)O)cc2ccc(S(=O)(=O)O)cc12
inactive: [4] 106 % of control | [7] 96 % of control | [5] 95 % of control | [8] 92 % of control | [6] 92 % of control | [9] 117 % of control

Oc1c(Br)cc(Br)cc1C=Nc1ccc(Br)cc1
inactive: [10] 110 % of control | [11] 97 % of control | [12] 95 % of control

Cc1ccc2c(ccc(CC(=S)[S-])[n+]2C)c1
inactive: dose: 6.25 mg/kg/injection, schedule: Q01DX009 (ip), vehicle: Klucel (hydroxypropylcellulose) (HPC) 97 % of control and 107 % of control | dose: 12.5 mg/kg/injection, schedule: Q01DX009 (ip), vehicle: Klucel (hydroxypropylcellulose) (HPC) 94 % of control and 109 % of control | dose: 25.0 mg/kg/injection, schedule: Q01DX009 (ip), vehicle: Klucel (hydroxypropylcellulose) (HPC) 93 % of control | dose: 50.0 mg/kg/injection, schedule: Q01DX009 (ip), vehicle: Klucel (hydroxypropylcellulose) (HPC) 91 % of control and 95 % of control | dose: 100.0 mg/kg/injection, schedule: Q01DX009 (ip), vehicle: Klucel (hydroxypropylcellulose) (HPC) 90 % of control and 96 % of control

COc1cc(CNCc2ccccc2)ccc1O
inactive: [13] 90 % of control | [14] 93 % of control | [15] 95 % of control

O=C1CCCCCN1C(=O)c1ccccc1
inactive: dose: 50.0 mg/kg/injection, schedule: Q01DX009 (ip), vehicle: other 105 % of control | dose: 100.0 mg/kg/injection, schedule: Q01DX009 (ip), vehicle: other 97 % of control | dose: 200.0 mg/kg/injection, schedule: Q01DX009 (ip), vehicle: other 105 % of control

CC(C)(C)C(=O)/C(O)=C\c1ccccc1
inactive: [16] 105 % of control | [17] 100 % of control | [18] 98 % of control

C=CCNC(=O)/C=C/C(=O)NCC=C
inactive: [19] 97 % of control | [20] 97 % of control | [1] 101 % of control | [10] 97 % of control

O=C1NN=C(C2CCCCC2)C12CCCCC2
inactive: [10] 96 % of control | [11] 100 % of control | [12] 94 % of control

COc1ccc2c(O)c3[n+](cc2c1OC)CCc1cc2c(cc1-3)OCO2
inactive: [13] 100 % of control | [14] 87 % of control | [15] 100 % of control

Br/C=C(\Br)C[N+]12CN3CN(CN(C3)C1)C2
inactive: [19] 107 % of control | [20] 105 % of control | [1] 104 % of control

N#CC(CC(=O)c1ccc(-c2ccccc2)cc1)c1ccccc1 (stereo unspecified)
inactive: [10] 91 % of control | [11] 91 % of control | [12] 95 % of control

C=CCS(=O)(=O)O
inactive: dose: 100.0 mg/kg/injection, schedule: Q01DX009 (ip), vehicle: saline sonified 96 % of control | [7] 100 % of control | dose: 200.0 mg/kg/injection, schedule: Q01DX009 (ip), vehicle: saline sonified 96 % of control | [8] 107 % of control | dose: 400.0 mg/kg/injection, schedule: Q01DX009 (ip), vehicle: saline sonified 96 % of control | [9] 107 % of control

COc1ccc(C=NC2CC(C)CCC2C)c(OC)c1 (stereo unspecified)
inactive: [1] 86 % of control | [10] 91 % of control | [2] 89 % of control | [11] 95 % of control | [3] 93 % of control | [12] 95 % of control

S=C1NCc2ccccc2N1
inactive: dose: 25.0 mg/kg/injection, schedule: Q01DX001 (ip), vehicle: Klucel (hydroxypropylcellulose) (HPC) 101 % of control | dose: 50.0 mg/kg/injection, schedule: Q01DX001 (ip), vehicle: Klucel (hydroxypropylcellulose) (HPC) 101 % of control | dose: 100.0 mg/kg/injection, schedule: Q01DX001 (ip), vehicle: Klucel (hydroxypropylcellulose) (HPC) 112 % of control

COc1ccc(-c2sc(/N=C/c3ccc(-c4ccccc4)cc3)c(C#N)c2C)cc1OC
inactive: [1] 97 % of control | [2] 100 % of control | [3] 91 % of control

CCC1(C)CC(=O)NC(=O)C1
inactive: dose: 2.5 mg/kg/injection, schedule: Q01DX009 (ip), vehicle: saline with Tween-80 97 % of control | dose: 5.0 mg/kg/injection, schedule: Q01DX009 (ip), vehicle: saline with Tween-80 100 % of control | dose: 10.0 mg/kg/injection, schedule: Q01DX009 (ip), vehicle: saline with Tween-80 94 % of control

Cc1cc(SCC(=O)c2ccc(Br)cc2)cc(C)[o+]1
inactive: dose: 6.25 mg/kg/injection, schedule: Q01DX009 (ip), vehicle: saline 96 % of control and 104 % of control | dose: 12.5 mg/kg/injection, schedule: Q01DX009 (ip), vehicle: saline 102 % of control and 108 % of control | dose: 25.0 mg/kg/injection, schedule: Q01DX009 (ip), vehicle: saline 96 % of control and 108 % of control | dose: 50.0 mg/kg/injection, schedule: Q01DX009 (ip), vehicle: saline 92 % of control and 96 % of control | [4] 102 % of control | [5] 86 % of control

CC(=O)OC1C2CCC(C2)C1C (stereo unspecified)
inactive: [10] 95 % of control | [11] 92 % of control | [12] 92 % of control

O=C1N=c2cc([N+](=O)[O-])c([N+](=O)[O-])cc2=N1
inactive: dose: 100.0 mg/kg/injection, schedule: Q01DX001 (ip), vehicle: saline with Tween-80 97 % of control | dose: 200.0 mg/kg/injection, schedule: Q01DX001 (ip), vehicle: saline with Tween-80 103 % of control | dose: 400.0 mg/kg/injection, schedule: Q01DX001 (ip), vehicle: saline with Tween-80 98 % of control

CCC(C)CC(=O)Nc1cccc(O)c1 (stereo unspecified)
inactive: [10] 96 % of control | [11] 96 % of control | [12] 91 % of control

OCC(O)C(O)C(O)C(/C=N/Nc1ccccc1)=N\Nc1ccccc1 (stereo unspecified)
inactive: dose: 75.0 mg/kg/injection, schedule: Q01DX001 (ip), vehicle: saline 95 % of control | dose: 150.0 mg/kg/injection, schedule: Q01DX001 (ip), vehicle: saline 100 % of control | dose: 300.0 mg/kg/injection, schedule: Q01DX001 (ip), vehicle: saline 97 % of control

CC1CN=C(c2ccc(Br)cc2)O1 (stereo unspecified)
inactive: [7] 103 % of control | [8] 96 % of control | [9] 103 % of control

ClC/C(=N\N1CCCCCC1)c1ccccc1
inactive: [16] 103 % of control | [17] 103 % of control | [18] 102 % of control
